row,SMILES,melting point
1,CSc1ccc(C=C2c3ccc(F)cc3CC2C)cc1 (configuration not stated),67 to 70 °C
2,Nc1ccc(-c2c(Cc3ccccc3)sc3ncnc(N)c23)cc1,208 to 210 °C
3,SCC1CSC2(SCCS2)S1 (configuration not stated),79 to 80.5 °C
4,Cc1ccc(S(=O)(=O)N2C(C)CN3C(=O)c4ccccc4C32c2ccc(F)cc2)cc1 (configuration not stated),215 to 217 °C
5,O=S(=O)(C(=CNc1ccccc1)S(=O)(=O)c1ccccc1)c1ccccc1,199 to 202 °C
6,CCc1cc(OC)cc2nc(-c3cccnc3N3CC[C@H](N(C)C)C3)oc(=O)c12,148 to 155 °C
7,CC1=NC(=NOC(=O)NC2CC2)SC1(C)C,86 to 89 °C
8,CC(C)(C)OC(=O)CC1CCNC(=O)c2ccccc21 (configuration not stated),126 to 127 °C
9,CC1(CCn2c(=O)oc3ccccc32)Cn2cc([N+](=O)[O-])nc2O1 (configuration not stated),193 to 195 °C
10,Oc1ccc(C(F)(F)C(F)(F)OC(F)(F)C(F)(F)OC(F)(F)C(F)(F)c2ccc(O)cc2)cc1,118 to 120 °C
11,COc1ccc(NCCCOc2ccc3ccccc3c2)cc1,110 °C
12,C=C(Br)Cc1cccs1,69 to 71 °C
13,CC(=O)c1cnc(N)o1,214 to 215 °C
14,CC(C)CC(=O)Nc1cccc(-c2ccnc3c(-c4cccs4)cnn23)c1,148 to 150 °C
15,CC(=O)N(O)C(C)c1cc2ccccc2o1 (configuration not stated),130 to 132 °C
16,COc1cc(Br)ccc1C12CC3CC(CC(C3)C1)C2,159 to 160 °C
17,COCOc1c(C)c(OC)c(OCOC)c(CCCCCc2c(OC)c(OCOC)c(C)c(OC)c2OCOC)c1OC,83 to 84 °C
18,O=C(O)CON=CCCl,66 to 68 °C
19,COc1cc(Br)ccc1-c1ccc(Br)cc1[N+](=O)[O-],127 to 129 °C
20,CC(=O)OC1(C)CCC2C3C(C#N)CC4=CC(=O)CCC4(C)C3CCC21C (configuration not stated),211 to 216 °C
21,CCCCCCCCCCCCC(=O)c1noc(CCCCCCCCCCCC)c1[N+](=O)[O-],60 to 62 °C
22,CC(=O)NC1=CCc2ccccc21,137 to 138 °C
23,CCC1(C)CC(NC(=O)C(=O)NC2CC(C)(CC)N(C(C)=O)C(C)(CC)C2C)C(C)C(C)(CC)N1C(C)=O (configuration not stated),164 °C

row,SMILES,melting point
1,N#Cc1cc(F)c(NC(=O)C(F)(F)F)c(F)c1,134 to 135 °C
2,COC(=O)C1CCSSC(C)(C)C(=O)N1 (configuration not stated),110 to 112 °C
3,CC1CC(=O)C2OCC1O2 (configuration not stated),122 to 125 °C
4,O=c1[nH]c2cccc(F)c2c(=O)n1CCCN1CC=C(c2ccc(Cl)cc2)CC1,201 to 202 °C
5,COc1cc2ncc(C(=O)O)c(Nc3cccc(Br)c3)c2cc1OC,282 to 285 °C
6,CCOC(=O)c1cnn2c1nc(OCC)c1cnc3c(cnn3CC)c12,167 to 168 °C
7,Fc1ccc(Nc2c3ccccc3nc3ccccc23)cc1,184 to 196 °C
8,"C=CCN1CCC(O)(c2cc(F)cc(F)c2)C1 (single isomer, unassigned; (-))",102 to 103 °C
9,N#CC(C=O)=C(c1ccc(F)cc1)c1ccc(F)cc1,167 to 169 °C
10,CCN(CC)Cc1nnc(-c2ncn3c2CN(C)C(=O)c2ccccc2-3)o1,235 to 238 °C
11,CC(=O)OCC1=C(C(=O)O)N2C(=O)C(NC(=O)Cn3ccnc3S(C)(=O)=O)C2SC1 (configuration not stated),223 °C
12,c1cn(-c2cc(-n3cnc4cc(-c5ccoc5)ccc43)ncn2)cn1,294 to 296 °C
13,S=C1Nc2ccccc2C1(c1c[nH]c2ccccc12)C1CNc2ccccc21 (configuration not stated),> 260 °C
14,COC(=O)C1Cc2cncn2C(=O)N1 (configuration not stated),159 to 164 °C
15,CC(C)Oc1ccc2c(c1O)OC(C)(C)CC2=O,114 to 116 °C
16,COCc1c(-c2ccno2)ncc2[nH]c3ccc(OCc4ccccc4)cc3c12,125 to 126 °C
17,CC12CCC3C(CC4OC45CC=CCC35C)C1CC=C2Br (configuration not stated),146 to 147 °C
18,CC1(C)CCC(C)(C)C2=C1CC(Cl)C(C)(O)C2 (configuration not stated),122 to 124 °C
19,CC(=O)NC(CCCCCCCCC(NC(C)=O)C1CCCCCCC1)C1CCCCCCC1 (configuration not stated),144 to 149 °C
20,CC(=O)CC(=O)NC1CCCC1,52 °C
21,CC(C)(C)NC(=O)C#CBr,113 °C
22,COc1ccc(C=CC(=O)C=Cc2ccccc2)cc1,85 to 89 °C

# Continued, values first:
row,melting point,SMILES
1,183 to 184 °C,COc1ccc(C(=O)Nc2ccccc2/C=C/c2ccnc(C)c2)cc1
2,116 to 118 °C,Clc1nc(-c2ccco2)nc2ccccc12
3,286 to 288 °C,CCc1c2c(nn1CC)c(N)nc1ncccc12
4,210 to 211 °C,NC(=O)N1C(=O)Cc2cc(C(=O)c3ccccc3)ccc21
5,213 to 215 °C,CCOCc1nc2c(N)nc3cc(-c4cccnc4)ccc3c2n1CCNC(=O)C(C)C
6,155 to 157 °C,CC(C)(C)[C@H]1CC[C@@H](Nc2nnc(CCc3cccnc3)c3ccccc23)CC1
7,133 to 136 °C,N#Cc1ccc(Cc2nc3ccccc3[nH]2)cc1
8,146 to 148 °C,CC(=O)COc1ccc2c(C)cc(=O)oc2c1
9,203 to 204 °C,Cc1ccc2c(c1)C(NC(=O)CCCCl)c1ccccc1CS2(=O)=O (configuration not stated)
10,84 to 86 °C,O=C1CCCc2ncc(Cl)cc21
11,151 to 153 °C,COCCc1nc2c(N)nc3c(c2n1CCOCCNS(C)(=O)=O)CCCC3
12,70 to 71 °C,FC(F)(F)Oc1ccc2nccc(N3CCN(C(=S)NCc4ccccc4)CC3)c2c1
13,-9.5 °C,CCCCC[C@H]1CC[C@H](c2ccc(F)c(F)c2)CC1
14,178 to 182 °C,COc1ccc(/C=C(\C)C(=O)O)cc1
15,209 to 210 °C,CCc1cc(=O)c2nc(OCCO[Si](c3ccccc3)(c3ccccc3)C(C)(C)C)ccc2[nH]1
16,174 to 176 °C,CCNCCCC(O)c1ccc(NS(C)(=O)=O)cc1 (configuration not stated)
17,80 °C,OC1(c2ccc(OCc3ccccc3)c(OCc3ccccc3)c2)CCCN(Cc2ccccc2)C1 (configuration not stated)
18,163 to 165 °C,CCCCC1OC(=O)c2cc(NC(=O)CCC(=O)O)ccc21 (configuration not stated)
19,90 to 92 °C,CCOC(=O)Nc1ccc(N2CCN([C@H](C)[C@](O)(Cn3cncn3)c3ccc(F)cc3F)CC2)cc1
20,> 260 °C,CC(C)(C)c1ccc(C(=O)Nc2cc[nH]c(=O)n2)cc1
21,108 to 112 °C,O=C(O)Cc1csc(Nc2ccc(Cl)c(C(F)(F)F)c2)n1

row,melting point,SMILES
1,98 to 100 °C,COC(=O)C1=C(C)NC(c2ncsc2Cl)=NC1c1ccc(F)cc1Cl (configuration not stated)
2,250 to 255 °C,Nc1nc2ccc(S(=O)(=O)n3c(CCC(=O)O)cc4cc(Cl)ccc43)cc2s1
3,131 to 134 °C,O=C(O)CCCc1cc2cc(Cl)ccc2n1S(=O)(=O)c1ccc2c(c1)OCCO2
4,81.5 to 82 °C,CCOC(=O)c1cc2cc(Cl)ccc2n1C
5,64 °C,CSC(=S)C1(c2ccncc2)CCCS1 (configuration not stated)
6,336 to 338 °C,COc1ccccc1N1CC(=O)Nc2c(C(N)=O)nc(-c3cccc(O)c3)nc21
7,240 to 241 °C,CCCC(=O)c1cnc2nc(C)c(OCC)cc2c1O
8,158 to 160 °C,CC(=O)N1CCC(CCC(=O)c2ccc(N(C)C)cc2)CC1
9,300 to 301 °C,O=C1CCCN1CCn1c(=O)[nH]c2ncc(-c3ccc(-c4nc[nH]n4)cc3)nc21
10,229 to 232 °C,COCc1nnc(NCCCN2CC3CCC(CC3)C2)c2cc3ccccn3c12
11,214 to 218 °C,O=C(O)C1(c2ccc(C#Cc3ccccc3)cc2)CC1
12,256 to 259 °C,CCOC(=O)c1cn(-c2ccc(F)cc2)c2cc(F)c(F)c(C)c2c1=O
13,63 °C,NC(=O)Oc1ccccc1CCCCC#CCSCC#CCCCCc1ccccc1OC(N)=O
14,251 to 254 °C,CCCc1nc2c(N)nc3cc(-c4cccc(C(=O)NC5CC5)c4)ccc3c2s1
15,102 to 105 °C,O=C(NN1CCN(C(=O)Cl)C1=O)OCc1ccccc1
16,152 to 153 °C,Nc1nc2ccc(CCN3CCC(Cc4ccccc4)CC3)cc2s1
17,302 to 305 °C,NNC(=O)c1cnn(-c2ccc(NN)nn2)c1N
18,120 to 121 °C,CCOC(=O)Cn1cc(C(=O)NCc2ccc(Cl)cc2Cl)c(OCC)n1
19,177 to 178 °C,O=C1CCC(c2ccc(C(F)(F)F)cc2)=NN1
20,73 to 74 °C,CC(C)OC(=O)c1cc(F)c(F)c(-c2ccc(Cl)cc2)n1
21,90 °C,CN(C)C(=O)n1cc(C(=O)C2CSC(c3cccnc3)N2C=O)c2ccc(OCc3ccccc3)cc21 (configuration not stated)

row,melting point,SMILES
1,222 to 223 °C,Cc1cc(=O)n(C)c2ccc(C3=NNC(=O)CC3CO)cc12 (configuration not stated)
2,87 to 90 °C,CCCCCCCCCCc1ccc(CNc2ccc(C(=O)OCC)cc2)cc1
3,133 to 135 °C,CS(=O)(=O)c1ccc2ccn(C3CCN(CCc4ccc(F)cc4)CC3)c2c1
4,62 to 64 °C,CCC1(c2cccc(OC)c2)CCCCN(C)C1=O (configuration not stated)
5,93 to 94 °C,CCOC(=O)COc1ccc(NS(C)(=O)=O)c(C)c1
6,99 to 101 °C,O=C(O)CCCCCc1nn(-c2ccc(Cl)cc2)c2c1CCC2
7,132 to 134 °C,CCN(c1ccc(Cl)cc1[N+](=O)[O-])S(=O)(=O)c1ccc(C)cc1
8,156 to 158 °C,CCCc1nn(C)c2c(=S)[nH]c(-c3ccccc3OCC)nc12
9,152 to 156 °C,O=C(O)CN1CCN(C(=O)c2cc(C(F)(F)F)cc(C(F)(F)F)c2)[C@H](Cc2c[nH]c3ccccc23)C1
10,115 °C,O=C(NC/C=C/c1ccccc1)c1ccoc1
11,188 to 190 °C,O=C(c1ccc([N+](=O)[O-])cc1)N1Cc2cccn2Cc2ccccc21
12,132 to 133 °C,O=C(O)CCC1(CCC(=O)O)CC(=O)c2ccc(OCCCOc3ccccc3)cc2O1
13,166 °C,CCN(CC)S(=O)(=O)c1cc(-c2csc(=Nc3ccccc3C)n2C)ccc1Cl
14,131 to 134 °C,O=C(O)c1cc2n(c1)CCCC2
15,219 °C,Cc1ccc2c(c1)c(Cl)c(C#N)c(=O)n2Cc1ccccc1
16,56 to 58 °C,N#CCC(=O)c1ccccc1Cl
17,144 to 145 °C,O=C1c2ccccc2C(O)N1CCCCSc1ccncc1 (configuration not stated)
18,110 to 151 °C,C[C@H](NC(=O)CC1CCC(=O)CC1)c1ccccc1
19,195 °C,Cc1ncc2n1C(=O)N(C1CCN(C(=O)CCS(=O)(=O)c3ccc4cc(Cl)ccc4c3)CC1)C2
20,266 °C,CC(C)(C)c1ccc2ncc(C(=O)NCc3ccc(Cl)cc3)c(O)c2c1

# From a melting point compilation (Tetko et al.; mined from patent text by program, amines drawn as free bases though some values may be those of a salt)
